Test results reported in patent publication US9637496B2, “Substituted 7-azabicycles and their use as orexin receptor modulators” (priority 2013, dated 2017).
pKi: −log10 of the molar value. Like-named read-outs stand apart in the source and are kept apart here.

Key:
[1] = molecular target: human orexin 1 receptor (Homo sapiens (Human), UniProt O43613); assay: Human orexin 1 receptor radioligand binding (competitive binding, CHO membranes); details: read-out: hOX1 Ki
[2] = molecular target: rat orexin 1 receptor (Rattus norvegicus (Rat), UniProt P56718); assay: Rat orexin 1 receptor radioligand binding (competitive binding, HEK293 membranes); details: read-out: rOX1 Ki
[3] = molecular target: human orexin 2 receptor (Homo sapiens (Human), UniProt O43614); assay: Human orexin 2 receptor radioligand binding ([3H]-EMPA competition, HEK293 membranes); details: human orexin 2 receptor; Table 2, averages from between 2-20 runs; read-out: hOX2 Ki
[4] = rat orexin 1 receptor, Table 2, averages from between 2-20 runs
[5] = human orexin 1 receptor, Table 2, averages from between 2-20 runs

Sequence of rat orexin 1 receptor (P56718 whole entry): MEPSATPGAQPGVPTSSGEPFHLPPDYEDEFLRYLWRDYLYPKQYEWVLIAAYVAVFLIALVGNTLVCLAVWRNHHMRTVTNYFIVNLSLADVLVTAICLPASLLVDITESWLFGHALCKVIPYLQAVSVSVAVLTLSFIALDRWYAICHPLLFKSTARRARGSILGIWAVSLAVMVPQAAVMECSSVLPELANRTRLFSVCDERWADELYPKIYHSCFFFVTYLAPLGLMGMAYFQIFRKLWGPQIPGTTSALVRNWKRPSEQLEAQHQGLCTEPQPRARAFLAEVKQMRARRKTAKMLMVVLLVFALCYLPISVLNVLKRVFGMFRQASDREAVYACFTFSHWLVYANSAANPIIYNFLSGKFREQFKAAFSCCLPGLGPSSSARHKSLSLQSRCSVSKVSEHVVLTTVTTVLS
Sequence of human orexin 1 receptor (O43613 whole entry): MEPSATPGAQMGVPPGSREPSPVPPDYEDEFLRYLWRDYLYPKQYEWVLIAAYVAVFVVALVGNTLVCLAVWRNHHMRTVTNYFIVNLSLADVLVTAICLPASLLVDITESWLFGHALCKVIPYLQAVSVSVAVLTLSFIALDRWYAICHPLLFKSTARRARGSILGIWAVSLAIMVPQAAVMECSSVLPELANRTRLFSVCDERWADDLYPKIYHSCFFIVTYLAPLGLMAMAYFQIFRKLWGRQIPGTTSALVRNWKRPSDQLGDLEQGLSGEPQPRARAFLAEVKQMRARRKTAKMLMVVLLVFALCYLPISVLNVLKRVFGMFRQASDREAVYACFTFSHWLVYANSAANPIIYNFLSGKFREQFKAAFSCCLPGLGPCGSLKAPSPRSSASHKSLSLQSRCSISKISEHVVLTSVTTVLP
Sequence of human orexin 2 receptor (O43614 whole entry): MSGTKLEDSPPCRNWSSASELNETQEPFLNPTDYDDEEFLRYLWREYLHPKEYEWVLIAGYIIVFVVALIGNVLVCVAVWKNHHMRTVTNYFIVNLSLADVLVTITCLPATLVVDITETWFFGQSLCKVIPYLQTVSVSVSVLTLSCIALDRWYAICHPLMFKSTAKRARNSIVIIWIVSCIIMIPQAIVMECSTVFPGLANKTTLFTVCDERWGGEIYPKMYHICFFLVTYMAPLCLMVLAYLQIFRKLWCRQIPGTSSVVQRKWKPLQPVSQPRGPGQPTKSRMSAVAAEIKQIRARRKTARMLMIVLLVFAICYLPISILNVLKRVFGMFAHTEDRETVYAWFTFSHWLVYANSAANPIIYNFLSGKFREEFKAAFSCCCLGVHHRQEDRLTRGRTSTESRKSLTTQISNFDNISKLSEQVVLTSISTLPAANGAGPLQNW

Row | SMILES | pKi [1] | pKi [2, 4] | pKi [3] | pKi [1, 5] | pKi [2]
1 | Cc1cccc(C(=O)N2[C@@H]3CC[C@H]2[C@H](Nc2ncc(Br)cn2)C3)c1-c1ncccn1 [Example 316, ((1S,2R,4R)-2-((5-bromopyrimidin-2-yl)amino)-7-azabicyclo[2.2.1]heptan-7-yl)(3-methyl-2-(pyrimidin-2-yl)phenyl)methanone] | 7.23 | 7.70 | 6.10 | – | –
2 | O=C(c1cccc(F)c1-n1nccn1)N1[C@@H]2CC[C@H]1[C@H](Nc1ncc(Br)cn1)C2 [Example 317, ((1S,2R,4R)-2-((5-bromopyrimidin-2-yl)amino)-7-azabicyclo[2.2.1]heptan-7-yl)(3-fluoro-2-(2H-1,2,3-triazol-2-yl)phenyl)methanone] | – | 7.51 | 5.80 | 7.15 | –
3 | Cc1cccc(C(=O)N2[C@@H]3CC[C@H]2[C@H](Nc2ncc(Br)cn2)C3)c1-n1nccn1 [Example 318, ((1S,2R,4R)-2-((5-bromopyrimidin-2-yl)amino)-7-azabicyclo[2.2.1]heptan-7-yl)(3-methyl-2-(2H-1,2,3-triazol-2-yl)phenyl)methanone] | 7.89 | – | 6.11 | – | 8.05
4 | O=C(c1cccc(F)c1-c1ccccn1)N1[C@@H]2CC[C@H]1[C@H](Nc1ccc(C(F)(F)F)cn1)C2 [Example 320, (3-fluoro-2-(pyridin-2-yl)phenyl)((1S,2R,4R)-2-((5-(trifluoromethyl)pyridin-2-yl)amino)-7-azabicyclo[2.2.1]heptan-7-yl)methanone] | 7.85 | – | 6.59 | – | 7.43
5 | O=C(c1ccc(F)cc1-n1nccn1)N1[C@@H]2CC[C@H]1[C@H](Nc1ccc(C(F)(F)F)cn1)C2 [Example 368, (4-fluoro-2-(2H-1,2,3-triazol-2-yl)phenyl)((1S,2R,4R)-2-((5-(trifluoromethyl)pyridin-2-yl)amino)-7-azabicyclo[2.2.1]heptan-7-yl)methanone] | – | 7.11 | 5.59 | 7.15 | –
6 | O=C(c1cc(F)ccc1-n1nccn1)N1[C@@H]2CC[C@H]1[C@H](Nc1ccc(C(F)(F)F)cn1)C2 [Example 369, (5-fluoro-2-(2H-1,2,3-triazol-2-yl)phenyl)((1S,2R,4R)-2-((5-(trifluoromethyl)pyridin-2-yl)amino)-7-azabicyclo[2.2.1]heptan-7-yl)methanone] | – | 7.17 | 6.20 | 7.35 | –
7 | O=C(c1c(F)cccc1-n1nccn1)N1[C@@H]2CC[C@H]1[C@H](Nc1ccc(C(F)(F)F)cn1)C2 [Example 370, (2-fluoro-6-(2H-1,2,3-triazol-2-yl)phenyl)((1S,2R,4R)-2-((5-(trifluoromethyl)pyridin-2-yl)amino)-7-azabicyclo[2.2.1]heptan-7-yl)methanone] | – | 6.98 | 6.29 | 6.85 | –
8 | O=C(c1cc(F)ccc1-c1ncccn1)N1[C@@H]2CC[C@H]1[C@H](Nc1ccc(C(F)(F)F)cn1)C2 [Example 371, (5-fluoro-2-(pyrimidin-2-yl)phenyl)((1S,2R,4R)-2-((5-(trifluoromethyl)pyridin-2-yl)amino)-7-azabicyclo[2.2.1]heptan-7-yl)methanone] | – | 7.38 | 6.21 | 7.57 | –
9 | O=C(c1c(F)cccc1-c1ncccn1)N1[C@@H]2CC[C@H]1[C@H](Nc1ccc(C(F)(F)F)cn1)C2 [Example 372, (2-fluoro-6-(pyrimidin-2-yl)phenyl)((1S,2R,4R)-2-((5-(trifluoromethyl)pyridin-2-yl)amino)-7-azabicyclo[2.2.1]heptan-7-yl)methanone] | 7.89 | – | 6.38 | – | 7.72
10 | O=C(c1ccccc1-c1ncccn1)N1[C@@H]2CC[C@H]1[C@H](Nc1ccc(C(F)(F)F)cn1)C2 [Example 373, (2-(pyrimidin-2-yl)phenyl)((1S,2R,4R)-2-((5-(trifluoromethyl)pyridin-2-yl)amino)-7-azabicyclo[2.2.1]heptan-7-yl)methanone] | 7.44 | – | 6.17 | – | 7.47
11 | O=C(c1ccccc1-c1ncc(F)cn1)N1[C@@H]2CC[C@H]1[C@H](Nc1ccc(C(F)(F)F)cn1)C2 [Example 374, (2-(5-fluoropyrimidin-2-yl)phenyl)((1S,2R,4R)-2-((5-(trifluoromethyl)pyridin-2-yl)amino)-7-azabicyclo[2.2.1]heptan-7-yl)methanone] | 7.51 | – | 6.04 | – | 7.39
12 | O=C(c1cccc(F)c1-c1ncc(F)cn1)N1[C@@H]2CC[C@H]1[C@H](Nc1ccc(C(F)(F)F)cn1)C2 [Example 375, (3-fluoro-2-(5-fluoropyrimidin-2-yl)phenyl)((1S,2R,4R)-2-((5-(trifluoromethyl)pyridin-2-yl)amino)-7-azabicyclo[2.2.1]heptan-7-yl)methanone] | 7.05 | – | 5.66 | – | 7.31
13 | O=C(c1cccc(Cl)c1-c1ncccn1)N1[C@@H]2CC[C@H]1[C@H](Nc1ccc(C(F)(F)F)cn1)C2 [Example 376, (3-chloro-2-(pyrimidin-2-yl)phenyl)((1S,2R,4R)-2-((5-(trifluoromethyl)pyridin-2-yl)amino)-7-azabicyclo[2.2.1]heptan-7-yl)methanone] | 8.40 | – | 6.96 | – | 8.00
14 | CN(c1ccc(C(F)(F)F)cn1)[C@@H]1C[C@H]2CC[C@@H]1N2C(=O)c1cccc(F)c1-c1ncccn1 [Example 377, (3-fluoro-2-(pyrimidin-2-yl)phenyl)((1S,2R,4R)-2-(methyl(5-(trifluoromethyl)pyridin-2-yl)amino)-7-azabicyclo[2.2.1]heptan-7-yl)methanone] | – | 6.65 | 5.05 | 6.85 | –
15 | Cc1cnc(C(=O)N2[C@@H]3CC[C@H]2[C@H](Nc2ccc(C(F)(F)F)cn2)C3)c(-c2ncccn2)c1 [Example 380, (5-methyl-3-(pyrimidin-2-yl)pyridin-2-yl)((1S,2R,4R)-2-((5-(trifluoromethyl)pyridin-2-yl)amino)-7-azabicyclo[2.2.1]heptan-7-yl)methanone] | 7.32 | – | 5.07 | – | 7.55
16 | O=C(c1ncccc1-c1ncccn1)N1[C@@H]2CC[C@H]1[C@H](Nc1ccc(C(F)(F)F)cn1)C2 [Example 381, (3-(pyrimidin-2-yl)pyridin-2-yl)((1S,2R,4R)-2-((5-(trifluoromethyl)pyridin-2-yl)amino)-7-azabicyclo[2.2.1]heptan-7-yl)methanone] | 7.60 | – | 6.10 | – | 7.60
17 | O=C(c1cccc(F)c1-c1ncccn1)N1[C@@H]2CC[C@H]1[C@H](Nc1ncc(C(F)(F)F)cc1F)C2 [Example 382, (3-fluoro-2-(pyrimidin-2-yl)phenyl)((1S,2R,4R)-2-((3-fluoro-5-(trifluoromethyl)pyridin-2-yl)amino)-7-azabicyclo[2.2.1]heptan-7-yl)methanone] | – | 7.74 | 5.96 | 7.82 | –
18 | O=C(c1cccc(F)c1-n1nccn1)N1[C@@H]2CC[C@H]1[C@H](Nc1ncc(C(F)(F)F)cc1Cl)C2 [Example 383, ((1S,2R,4R)-2-((3-chloro-5-(trifluoromethyl)pyridin-2-yl)amino)-7-azabicyclo[2.2.1]heptan-7-yl)(3-fluoro-2-(2H-1,2,3-triazol-2-yl)phenyl)methanone] | – | 7.48 | 6.12 | 7.80 | –
